Measured values published in paper PMC13010326, “Fragment-Based Development of NSP14 Exonuclease Inhibitors Confounded by Batch-to-Batch Variability” (ACS Chemical Biology, 2026).
Like-named read-outs stand apart in the source and are kept apart here.

Tests used:
NSP14 ExoN [1] = biological target: T1, NSP14 ExoN (Severe acute respiratory syndrome coronavirus 2, UniProt P0DTD1); test: biochemical
NSP14 = NSP14 (Severe acute respiratory syndrome coronavirus 2, UniProt P0DTD1); test: NSP14 DSF thermal shift assay; format: binding, SARS-CoV-2; details: 1 mM compound
Experimental: In technical triplicate, NSP14 (0.15 mg mL^–1) was prepared in 20 mM HEPES pH 7.5, 200 mM NaCl, 1 mM TCEP, and 2 mM MgCl2 and mixed with 1 mM compound or 2% DMSO. Samples were rested for 10 min and then mixed with SYPRO Orange (3× concentration, Invitrogen No. S6650). Raw melting curves (25–99 °C, 0.05 °C C/s, 20 μL volume) were collected on a QuantStudio 3 (Applied Biosystems) and each replicate well was individually normalized from 0 to 100 prior to averaging.

substrate dsRNA = test: Thiazole orange dsRNA intercalation (competition) counter-screen; format: binding; details: final 0.5% DMSO
Experimental: RNase T1 inhibition assay and thiazole orange RNA intercalation counter-screening assays were conducted essentially as previously reported. The TR-FRET ExoN activity assay dsRNA substrate and Assay Buffer were used for the intercalation assay and mixed with compounds in a final 0.5% DMSO.

NSP14 ExoN [2] = biological target: T1, NSP14 ExoN; set-up: method as in not given; details: small biochemical screens; promiscuous compounds; ref not given; cited from earlier work
[3] = original (first) compound batches, read-out: pIC50, inhibition of NSP14 ExoN in biochemical activity assay (converted)
[4] = resynthesized, more stringently purified second batch
[5] = biochemically active (first) batch

Cc1cc(N2CCNCC2)nc(C)n1 [Compound 1, reference compound]
IC50 (NSP14 ExoN [1]; [3]): 398 µM

Cc1csc(CNC(=O)c2cc[nH]n2)n1 [Compound 2, reference compound]
IC50 (NSP14 ExoN [1]; [3]): > 501 µM

CC(C)c1csc(CNC(=O)c2cc[nH]n2)n1 [Compound 3]
IC50 (NSP14 ExoN [1]; [3]): 2.51 µM
Activity of second batches against NSP14 ExoN (NSP14 ExoN [1]; [4]): inactive
NSP14 destabilization by differential scanning fluorimetry (DSF) (NSP14; [5]): evidence of NSP14 destabilization
NSP14 destabilization by differential scanning fluorimetry (DSF) (NSP14; biochemically inactive second batch): did not

C#Cc1nc(CNC(=O)c2cc[nH]n2)cs1 [Compound 4]
IC50 (NSP14 ExoN [1]; original (first) batch, n = 5, read-out: IC50, inhibition of NSP14 ExoN in biochemical activity assay (as printed in text for 4) (converted)): 158 µM

C=Cc1csc(CNC(=O)c2cc[nH]n2)n1 [Compound 5]
IC50 (NSP14 ExoN [1]; [3]): 251 µM

O=C(NCc1nc(C2CC2)cs1)c1cc[nH]n1 [Compound 6]
IC50 (NSP14 ExoN [1]; [3]): 50.1 µM
Activity of second batches against NSP14 ExoN (NSP14 ExoN [1]; [4]): inactive

O=C(NCc1nc(C2CC2)cs1)c1cc(CNCC2CC2)[nH]n1 [Compound 12, 5-(((Cyclopropylmethyl)amino)methyl)-N-((4-cyclopropylthiazol-2-yl)methyl)-1H-pyrazole-3-carboxamide]
Activity of second batches against NSP14 ExoN (NSP14 ExoN [1]): inactive
Binding to substrate dsRNA by thiazole orange competition assay (substrate dsRNA): neither bound to substrate dsRNA
NSP14 destabilization by differential scanning fluorimetry (DSF) (NSP14; [5]): evidence of NSP14 destabilization

CC(=O)NCc1cc(C(=O)NCc2nc(C3CC3)cs2)n[nH]1 [Compound 13]
Activity of second batches against NSP14 ExoN (NSP14 ExoN [1]): inactive
Binding to substrate dsRNA by thiazole orange competition assay (substrate dsRNA): neither bound to substrate dsRNA
NSP14 destabilization by differential scanning fluorimetry (DSF) (NSP14; [5]): evidence of NSP14 destabilization

O=C(NCc1nc(C2CC2)cs1)c1n[nH]c2ncccc12 [Compound 14]
IC50 (NSP14 ExoN [1]; [3]): 158 µM

CC(=O)NCc1cc(C(=O)NCc2nc(C(C)C)cs2)n[nH]1 [Compound 15]
IC50 (NSP14 ExoN [1]; [3]): > 501 µM

CC(C)c1csc(CNC(=O)c2cc(CNCC3CC3)[nH]n2)n1 [Compound 16]
IC50 (NSP14 ExoN [1]; [3]): > 501 µM

O=C(O)C1=CC(=C(c2ccc(O)c(C(=O)O)c2)c2ccc(O)c(C(=O)O)c2)C=CC1=O [aurintricarboxylic acid]
Inhibition of NSP14 ExoN (in words) (NSP14 ExoN [2]): can inhibit NSP14 ExoN

O=c1c2ccccc2[se]n1-c1ccccc1 [ebselen]
Inhibition of NSP14 ExoN (in words) (NSP14 ExoN [2]): can inhibit NSP14 ExoN

O=C1C=C2C(=CCOC2O)O1 (centres unmarked) [patulin]
Inhibition of NSP14 ExoN (in words) (NSP14 ExoN [2]): can inhibit NSP14 ExoN

CC(C)=CCOc1ccc(/C=C/C(=O)c2ccc(OCC=C(C)C)cc2OCC(=O)O)cc1 [sofalcone]
Inhibition of NSP14 ExoN (in words) (NSP14 ExoN [2]): can inhibit NSP14 ExoN
